From a melting point compilation (Tetko et al.; mined from patent text by program, amines drawn as free bases though some values may be those of a salt)

With `NNc1nc(N)c2ncn(COCCO)c2n1` the melting point was 220 to 222 °C. In the case of `Cc1ccc(C(=O)N2CC3CC2CN3c2nc(-c3ccncc3)cc(=O)n2C)cc1` (stereo not drawn), the melting point is reported as 118 to 120 °C. Molecule `Cc1ccc(-c2ccccc2)cc1Cn1c(Cl)nn(C)c1=O` has a melting point of 116 °C. `O=C1C2=C(CCCC2)C(=O)N1c1ccc(Br)c(O)c1` gave a melting point of 247 to 248 °C. `CC(C)(C)OC(=O)N1CCC(c2c[nH]cn2)CC1` showed a melting point of 198 °C. With `CC(C#Cc1ccc(Oc2ccc(Cc3ccc(F)cc3)cc2)o1)N(O)C(N)=O` (stereo not drawn) the melting point was 145 to 147 °C. With `Cc1ccc(-c2noc3c(Cl)c(OCC(=O)O)ccc23)cc1` the melting point was 257 to 260 °C. `CCCc1c(C(=O)C2CC2)c2ccc(C(N)=O)cc2n1Cc1ccccc1Cl` showed a melting point of 162 to 164 °C. With `CC1(C)CC=Nc2nc(N)c3ccccc3c21` the melting point was 253 to 260 °C. `CCOC(=O)c1nc(N)sc1-c1nc2ccc(Cl)cn2c1C` showed a melting point of 217 to 219 °C. For `COC(=O)c1cc(-c2ccc(OC)cc2)nn(Cc2ccc([N+](=O)[O-])cc2)c1=O`, the melting point was 215 to 217 °C. In the case of `CCN1CCN(c2ccnc3c(NC(=O)c4c(Cl)cccc4Cl)cccc23)C1=O`, the melting point is reported as 249 to 253 °C. In the case of `Cc1cccc(C(O)c2cncn2C(c2ccccc2)(c2ccccc2)c2ccccc2)c1C` (stereo not drawn), the melting point is reported as 203 to 207 °C. `O=C1CCC(N2Cc3c(OCc4ccc(OCCN5CCOCC5)cc4)cccc3C2=O)C(=O)N1` (stereo not drawn) gave a melting point of 203 to 205 °C. In the case of `C[Si](Cn1nc[nH]c1=S)(c1ccccc1F)c1ccccc1F`, the melting point is reported as 105 °C. For `Nc1ccc(NC(=O)C=C2CC(C(=O)OCc3ccccc3)Nc3cc(Cl)cc(Cl)c32)cc1` (racemic), the melting point was 80 °C. `O=C(Nc1ccc(N2CCOCC2)cc1)N(C[C@H]1CC[C@H](CN(C(=O)Nc2ccc(N3CCOCC3)cc2)C2CCCCC2)CC1)C1CCCCC1` showed a melting point of 156 to 158 °C. `COc1ccc2cccc(N3CCN(CCC4CC(=O)Nc5ccccc54)CC3)c2c1` (stereo not drawn) showed a melting point of 177 to 178 °C. In the case of `CNS(=O)(=O)CCc1ccc(NN=CCCC#N)cc1`, the melting point is reported as 96 to 97 °C. With `O=c1cccc(C(F)F)[nH]1` the melting point was 125 to 127 °C. In the case of `Nc1ccc2c(c1)c(=O)[nH]c(=O)n2CCCCN1CCC(OC(c2ccccc2)c2ccccc2)CC1`, the melting point is reported as 131 to 133 °C. `Cc1ccccc1-c1c(CNC(=O)Nc2ccc(F)cc2F)oc2ccc(Cl)cc12` gave a melting point of 178 to 180 °C. Work on `Cc1oc(-c2ccccc2)nc1COc1ccc(Cn2cc(CCC(=O)O)c(-c3ccc(C(F)(F)F)cc3)n2)cc1` yielded a melting point of 149 to 150 °C. `COC(=O)c1cc(OC)ccc1N(CC#N)c1ccccc1` gave a melting point of 107 to 109 °C. In the case of `CC(C(=O)Nc1ccc2c(c1)OCO2)N1CCN(c2ccccn2)CC1` (stereo not drawn), the melting point is reported as 189 to 191 °C. `Cc1nnc(CNC(=O)CCl)n1-c1ccc(Cl)cc1C(=O)c1ccccc1` gave a melting point of 140 to 141 °C. For `CC1OC(=Nc2nccs2)c2c1nc1ccccc1c2O` (stereo not drawn), the melting point was > 270 °C. For `COc1ccc2nc3[nH]cnc(=O)c3cc2c1`, the melting point was > 300 °C. `Cc1c(-c2ccccc2)nn(C(C)C(=O)N(C)C)c1[N+](=O)[O-]` (stereo not drawn) gave a melting point of 141 to 143 °C. `CCC1c2cccn2-c2cc(O)c(F)cc2N1S(=O)(=O)c1ccc(O)c(C)c1` (stereo not drawn) showed a melting point of 194 to 196 °C. `Cn1c(-c2ccccc2)c(-c2ccc(C(=O)O)cc2)c2ccccc21` gave a melting point of 165 to 166 °C. Molecule `CN1CCC(Oc2ccc(C#N)cc2C(F)(F)F)CC1` has a melting point of 66 to 69 °C. `CNCC1CN(c2c(F)cc3c(=O)c(C(=O)O)cn(C4CC4)c3c2F)CCO1` (stereo not drawn) gave a melting point of 257 to 259 °C. In the case of `CCOC(=O)C1=NN(C(=O)c2ccccc2I)C(C(=O)OCC)=NN1C(=O)c1ccccc1I`, the melting point is reported as 186 to 187 °C. Work on `CC#CCN=C(NC#N)NCCSCc1[nH]cnc1C` yielded a melting point of 128 to 130 °C. `Cc1ccc(S(=O)(=O)C(CC=Cc2ccc(Cl)cc2)C(=O)O)cc1` (stereo not drawn) showed a melting point of 162 to 164 °C. In the case of `CS(=O)(=O)CC(N)C1(c2ccc(Cl)cc2)CCC1` (stereo not drawn), the melting point is reported as 134 to 135 °C. In the case of `CC(=O)N1N=C(c2ccc([N+](=O)[O-])cc2)c2cc3c(cc2C=C1C)OCO3`, the melting point is reported as 205 to 207 °C.
